Measurements published in PubChem BioAssay AID1845219 (Molecular Pharmacology Branch, DTP, NCI, 2023).

Test system: SYO-1 tumor spheroids, viability % test/control
Test: Anticancer human tumor SYO-1 cell line growth inhibition;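 note: spheroids exposed to agents for 7 days before viability read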;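 for viability, T/C: 100% = DMSO vehicle control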
Details: spheroids with HUVEC and MSC; for IC50: curve of first compound; for viability, T/C: stronger effect = lower value
Outline: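 Complex tumor spheroids combined malignant cells with endothelial cells and mesenchymal stem cells. DNA-damaging drugs and DNA repair inhibitors were tested alone and in combination, at half-log dilutions down from clinical Cmax (top 10 microM if Cmax unknown), 0.25% DMSO final.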

[1] = second compound 1 µM, first compound 0.0316 µM
[2] = second compound 1 µM, first compound 0.1 µM
[3] = second compound 1 µM, first compound 0.316 µM
[4] = second compound 1 µM, first compound 1 µM
[5] = second compound 1 µM, first compound 3.16 µM
[6] = second compound 1 µM, first compound 10 µM
[7] = second compound 3.16 µM, first compound 0.0316 µM
[8] = second compound 3.16 µM, first compound 0.1 µM
[9] = second compound 3.16 µM, first compound 0.316 µM
[10] = second compound 3.16 µM, first compound 1 µM
[11] = second compound 3.16 µM, first compound 3.16 µM
[12] = second compound 3.16 µM, first compound 10 µM
[13] = second compound 10 µM, first compound 0.0316 µM
[14] = second compound 10 µM, first compound 0.1 µM
[15] = second compound 10 µM, first compound 0.316 µM
[16] = second compound 10 µM, first compound 1 µM
[17] = second compound 10 µM, first compound 3.16 µM
[18] = second compound 10 µM, first compound 10 µM
[19] = second compound 31.6 µM, first compound 0.0316 µM
[20] = second compound 31.6 µM, first compound 0.1 µM
[21] = second compound 31.6 µM, first compound 0.316 µM
[22] = second compound 31.6 µM, first compound 1 µM
[23] = second compound 31.6 µM, first compound 3.16 µM
[24] = second compound 31.6 µM, first compound 10 µM
[25] = second compound 100 µM, first compound 0.0316 µM
[26] = second compound 100 µM, first compound 0.1 µM
[27] = second compound 100 µM, first compound 0.316 µM
[28] = second compound 100 µM, first compound 1 µM
[29] = second compound 100 µM, first compound 3.16 µM
[30] = second compound 100 µM, first compound 10 µM
[31] = second compound 0.003 µM, first compound 0.00949 µM
[32] = second compound 0.003 µM, first compound 0.03 µM
[33] = second compound 0.003 µM, first compound 0.0949 µM
[34] = second compound 0.003 µM, first compound 0.3 µM
[35] = second compound 0.003 µM, first compound 0.949 µM
[36] = second compound 0.003 µM, first compound 3 µM
[37] = second compound 0.00949 µM, first compound 0.00949 µM
[38] = second compound 0.00949 µM, first compound 0.03 µM
[39] = second compound 0.00949 µM, first compound 0.0949 µM
[40] = second compound 0.00949 µM, first compound 0.3 µM
[41] = second compound 0.00949 µM, first compound 0.949 µM
[42] = second compound 0.00949 µM, first compound 3 µM
[43] = second compound 0.03 µM, first compound 0.00949 µM
[44] = second compound 0.03 µM, first compound 0.03 µM
[45] = second compound 0.03 µM, first compound 0.0949 µM
[46] = second compound 0.03 µM, first compound 0.3 µM
[47] = second compound 0.03 µM, first compound 0.949 µM
[48] = second compound 0.03 µM, first compound 3 µM
[49] = second compound 0.0949 µM, first compound 0.00949 µM
[50] = second compound 0.0949 µM, first compound 0.03 µM
[51] = second compound 0.0949 µM, first compound 0.0949 µM
[52] = second compound 0.0949 µM, first compound 0.3 µM
[53] = second compound 0.0949 µM, first compound 0.949 µM
[54] = second compound 0.0949 µM, first compound 3 µM
[55] = second compound 0.3 µM, first compound 0.00949 µM
[56] = second compound 0.3 µM, first compound 0.03 µM
[57] = second compound 0.3 µM, first compound 0.0949 µM
[58] = second compound 0.3 µM, first compound 0.3 µM
[59] = second compound 0.3 µM, first compound 0.949 µM
[60] = second compound 0.3 µM, first compound 3 µM

CC(C)n1c(=O)n(C)c2cnc3cc(F)c(-c4ccc(OCCCN5CCCCC5)nc4)cc3c21 + Cn1nnc2c(C(N)=O)ncn2c1=O
IC50 (second compound 1 µM): > 10000 nM | IC50 (second compound 3.16 µM): > 10000 nM | IC50 (second compound 10 µM): 9260 nM | IC50 (second compound 31.6 µM): 7880 nM | IC50 (second compound 100 µM): > 10000 nM | viability, T/C [1]: 100% | viability, T/C [2]: 101% | viability, T/C [3]: 103% | viability, T/C [4]: 103% | viability, T/C [5]: 101% | viability, T/C [6]: 59.1% | viability, T/C [7]: 105% | viability, T/C [8]: 104% | viability, T/C [9]: 106% | viability, T/C [10]: 104% | viability, T/C [11]: 103% | viability, T/C [12]: 52% | viability, T/C [13]: 105% | viability, T/C [14]: 100% | viability, T/C [15]: 103% | viability, T/C [16]: 108% | viability, T/C [17]: 102% | viability, T/C [18]: 46.3% | viability, T/C [19]: 106% | viability, T/C [20]: 113% | viability, T/C [21]: 106% | viability, T/C [22]: 115% | viability, T/C [23]: 104% | viability, T/C [24]: 35.8% | viability, T/C [25]: 108% | viability, T/C [26]: 112% | viability, T/C [27]: 106% | viability, T/C [28]: 96.2% | viability, T/C [29]: 103% | viability, T/C [30]: 73%

CC1COCCN1c1cc(-c2ccnn2C)c2ccnc(-c3ccn[nH]3)c2n1 (stereo not given) + Cn1nnc2c(C(N)=O)ncn2c1=O
IC50 (second compound 1 µM): < 31.6 nM | IC50 (second compound 3.16 µM): < 31.6 nM | IC50 (second compound 10 µM): < 31.6 nM | IC50 (second compound 31.6 µM): < 31.6 nM | IC50 (second compound 100 µM): < 31.6 nM | viability, T/C [1]: 41.1% | viability, T/C [2]: 5.35% | viability, T/C [3]: 2.75% | viability, T/C [4]: 1.62% | viability, T/C [5]: 0.73% | viability, T/C [6]: 0.7% | viability, T/C [7]: 38.4% | viability, T/C [8]: 4.75% | viability, T/C [9]: 3.22% | viability, T/C [10]: 1.73% | viability, T/C [11]: 7.91% | viability, T/C [12]: 20% | viability, T/C [13]: 20.3% | viability, T/C [14]: 3.73% | viability, T/C [15]: 2.69% | viability, T/C [16]: 1.48% | viability, T/C [17]: 5.25% | viability, T/C [18]: 21.1% | viability, T/C [19]: 11.1% | viability, T/C [20]: 10.2% | viability, T/C [21]: 2.45% | viability, T/C [22]: 1.18% | viability, T/C [23]: 7.18% | viability, T/C [24]: 6.71% | viability, T/C [25]: 2.97% | viability, T/C [26]: 2.88% | viability, T/C [27]: 1.91% | viability, T/C [28]: 1.24% | viability, T/C [29]: 0.77% | viability, T/C [30]: 0.75%

Cc1sc2c(c1C)C(c1ccc(Cl)cc1)=NC(CC(=O)Nc1ccc(O)cc1)c1nnc(C)n1-2 (stereo not given) + CC[C@@]1(O)C(=O)OCc2c1cc1n(c2=O)Cc2cc3c(CN(C)C)c(O)ccc3nc2-1
IC50 (second compound 0.003 µM): 43.4 nM | IC50 (second compound 0.00949 µM): < 9.49 nM | IC50 (second compound 0.03 µM): < 9.49 nM | IC50 (second compound 0.0949 µM): < 9.49 nM | IC50 (second compound 0.3 µM): < 9.49 nM | viability, T/C [31]: 84.9% | viability, T/C [32]: 70.3% | viability, T/C [33]: 7.08% | viability, T/C [34]: 0.99% | viability, T/C [35]: 0.77% | viability, T/C [36]: 0.63% | viability, T/C [37]: 6.31% | viability, T/C [38]: 3.24% | viability, T/C [39]: 1.18% | viability, T/C [40]: 1.31% | viability, T/C [41]: 0.7% | viability, T/C [42]: 0.6% | viability, T/C [43]: 1.74% | viability, T/C [44]: 1.47% | viability, T/C [45]: 1.35% | viability, T/C [46]: 7.03% | viability, T/C [47]: 0.62% | viability, T/C [48]: 0.49% | viability, T/C [49]: 1.62% | viability, T/C [50]: 1.4% | viability, T/C [51]: 0.87% | viability, T/C [52]: 1.04% | viability, T/C [53]: 0.66% | viability, T/C [54]: 0.74% | viability, T/C [55]: 1.64% | viability, T/C [56]: 1.48% | viability, T/C [57]: 1.05% | viability, T/C [58]: 0.75% | viability, T/C [59]: 0.47% | viability, T/C [60]: 0.55%

Cn1ncnc1[C@H]1c2n[nH]c(=O)c3cc(F)cc(c23)N[C@@H]1c1ccc(F)cc1 + CC[C@@]1(O)C(=O)OCc2c1cc1n(c2=O)Cc2cc3c(CN(C)C)c(O)ccc3nc2-1
IC50 (second compound 0.003 µM): < 9.49 nM | IC50 (second compound 0.00949 µM): < 9.49 nM | IC50 (second compound 0.03 µM): < 9.49 nM | IC50 (second compound 0.0949 µM): < 9.49 nM | IC50 (second compound 0.3 µM): < 9.49 nM | viability, T/C [31]: 3.29% | viability, T/C [32]: 2.24% | viability, T/C [33]: 1.89% | viability, T/C [34]: 1.63% | viability, T/C [35]: 1.45% | viability, T/C [36]: 1.47% | viability, T/C [37]: 1.7% | viability, T/C [38]: 1.69% | viability, T/C [39]: 1.68% | viability, T/C [40]: 1.41% | viability, T/C [41]: 1.63% | viability, T/C [42]: 1.37% | viability, T/C [43]: 1.69% | viability, T/C [44]: 1.49% | viability, T/C [45]: 1.7% | viability, T/C [46]: 1.53% | viability, T/C [47]: 1.32% | viability, T/C [48]: 1.28% | viability, T/C [49]: 1.59% | viability, T/C [50]: 1.89% | viability, T/C [51]: 1.72% | viability, T/C [52]: 1.66% | viability, T/C [53]: 1.34% | viability, T/C [54]: 1.13% | viability, T/C [55]: 1.71% | viability, T/C [56]: 1.64% | viability, T/C [57]: 1.52% | viability, T/C [58]: 1.37% | viability, T/C [59]: 1.3% | viability, T/C [60]: 1.04%
